Where two headings read alike, the source gives them in different places.
What was measured:
Format in all cases: biochemical
p38a MAPK = p38a MAPK (Homo sapiens, UniProt Q16539); assay: Kinase profiling p38a MAPK; conditions: for remaining activity at 100 µM: read-out: residual kinase activity, p38a MAPK
Excerpt: (§1) Any value less that 25 is considered to be highly significant inhibition.

SmMLCK = SmMLCK (Homo sapiens, UniProt Q15746); assay: Kinase profiling SmMLCK; conditions: for remaining activity at 100 µM: read-out: residual kinase activity, SmMLCK
MARK3 = MARK3 (Homo sapiens, UniProt P27448); assay: Kinase profiling MARK3; conditions: for remaining activity at 100 µM: read-out: residual kinase activity, MARK3
Excerpt: as §1

DYRK1A = DYRK1A (Homo sapiens, UniProt Q13627); assay: DYRK 1A assay (kinase profiling); conditions: for remaining activity at 100 µM: read-out: residual kinase activity, DYRK1A
Protocol: Assays are stopped by addition of 5 μl of 0.5 M (3%) orthophosphoric acid and then harvested onto P81 Unifilter plates with a wash buffer of 50 mM orthophosphoric acid.
as §1

Lck = Lck (Homo sapiens, UniProt P06239); assay: Kinase profiling Lck; conditions: for remaining activity at 100 µM: read-out: residual kinase activity, Lck
Excerpt: as §1

MAPKAP-K3 = MAPKAP-K3 (Homo sapiens, UniProt Q16644); assay: Kinase profiling MAPKAP-K3; conditions: read-out: residual kinase activity, MAPKAP-K3
Excerpt: as §1

DAPK1 = DAPK1 (Homo sapiens, UniProt P53355); assay: Kinase profiling DAPK1; conditions: read-out: residual kinase activity, DAPK1
Excerpt: as §1

HIPK3 = HIPK3 (Homo sapiens, UniProt Q9H422); assay: Kinase profiling HIPK3; conditions: read-out: residual kinase activity, HIPK3
Excerpt: as §1

MEKK1 = MEKK1 (Homo sapiens, UniProt Q13233); assay: Kinase profiling MEKK1; conditions: read-out: residual kinase activity, MEKK1
Excerpt: as §1

ZAP70 = molecular target: T1, ZAP70 (Homo sapiens, UniProt P43403); assay: Kinase profiling ZAP70; conditions: read-out: residual kinase activity, ZAP70
T1 sequence (P43403 1-619): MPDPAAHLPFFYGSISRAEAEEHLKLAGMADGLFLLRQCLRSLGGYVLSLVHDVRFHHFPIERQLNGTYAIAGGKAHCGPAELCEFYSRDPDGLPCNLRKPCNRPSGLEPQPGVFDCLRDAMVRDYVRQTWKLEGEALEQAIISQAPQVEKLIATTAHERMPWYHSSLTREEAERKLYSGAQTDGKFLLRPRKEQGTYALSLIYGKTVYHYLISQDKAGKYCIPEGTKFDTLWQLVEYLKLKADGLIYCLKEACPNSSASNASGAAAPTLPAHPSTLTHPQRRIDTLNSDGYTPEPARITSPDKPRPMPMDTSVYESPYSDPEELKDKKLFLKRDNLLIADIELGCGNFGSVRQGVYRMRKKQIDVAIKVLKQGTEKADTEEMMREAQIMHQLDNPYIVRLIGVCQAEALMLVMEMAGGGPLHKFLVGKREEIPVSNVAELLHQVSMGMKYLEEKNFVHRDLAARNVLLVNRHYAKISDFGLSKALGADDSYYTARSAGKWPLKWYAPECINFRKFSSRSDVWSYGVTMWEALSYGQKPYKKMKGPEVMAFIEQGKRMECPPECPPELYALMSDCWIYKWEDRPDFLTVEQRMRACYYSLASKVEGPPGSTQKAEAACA
Excerpt: as §1

TIE2 = TIE2 (Homo sapiens, UniProt Q02763); assay: Kinase profiling TIE2; conditions: read-out: residual kinase activity, TIE2
Excerpt: as §1

EPH-A4 = EPH-A4 (Homo sapiens, UniProt P54764); assay: Kinase profiling EPH-A4; conditions: read-out: residual kinase activity, EPH-A4
Excerpt: as §1

ERK5 = ERK5 (Homo sapiens, UniProt Q13164); assay: Kinase profiling ERK5; conditions: 100 micromolar inhibitor concentration; 100 is no change
Excerpt: as §1

[1] = 100 micromolar inhibitor concentration, 100 is no change
[2] = 100 micromolar inhibitor, 100 = no change

p38a MAPK, sequence (Q16539 whole entry): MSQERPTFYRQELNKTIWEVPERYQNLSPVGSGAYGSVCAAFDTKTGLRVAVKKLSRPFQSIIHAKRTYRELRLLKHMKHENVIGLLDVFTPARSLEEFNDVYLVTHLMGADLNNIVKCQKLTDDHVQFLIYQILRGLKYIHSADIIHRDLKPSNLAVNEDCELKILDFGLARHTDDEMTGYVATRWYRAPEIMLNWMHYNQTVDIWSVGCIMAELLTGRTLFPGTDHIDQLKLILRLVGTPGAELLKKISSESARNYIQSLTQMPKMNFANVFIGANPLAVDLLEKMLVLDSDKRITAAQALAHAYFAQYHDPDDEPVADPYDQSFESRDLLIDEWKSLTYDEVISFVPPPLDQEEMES
SmMLCK, sequence (Q15746 923-1914): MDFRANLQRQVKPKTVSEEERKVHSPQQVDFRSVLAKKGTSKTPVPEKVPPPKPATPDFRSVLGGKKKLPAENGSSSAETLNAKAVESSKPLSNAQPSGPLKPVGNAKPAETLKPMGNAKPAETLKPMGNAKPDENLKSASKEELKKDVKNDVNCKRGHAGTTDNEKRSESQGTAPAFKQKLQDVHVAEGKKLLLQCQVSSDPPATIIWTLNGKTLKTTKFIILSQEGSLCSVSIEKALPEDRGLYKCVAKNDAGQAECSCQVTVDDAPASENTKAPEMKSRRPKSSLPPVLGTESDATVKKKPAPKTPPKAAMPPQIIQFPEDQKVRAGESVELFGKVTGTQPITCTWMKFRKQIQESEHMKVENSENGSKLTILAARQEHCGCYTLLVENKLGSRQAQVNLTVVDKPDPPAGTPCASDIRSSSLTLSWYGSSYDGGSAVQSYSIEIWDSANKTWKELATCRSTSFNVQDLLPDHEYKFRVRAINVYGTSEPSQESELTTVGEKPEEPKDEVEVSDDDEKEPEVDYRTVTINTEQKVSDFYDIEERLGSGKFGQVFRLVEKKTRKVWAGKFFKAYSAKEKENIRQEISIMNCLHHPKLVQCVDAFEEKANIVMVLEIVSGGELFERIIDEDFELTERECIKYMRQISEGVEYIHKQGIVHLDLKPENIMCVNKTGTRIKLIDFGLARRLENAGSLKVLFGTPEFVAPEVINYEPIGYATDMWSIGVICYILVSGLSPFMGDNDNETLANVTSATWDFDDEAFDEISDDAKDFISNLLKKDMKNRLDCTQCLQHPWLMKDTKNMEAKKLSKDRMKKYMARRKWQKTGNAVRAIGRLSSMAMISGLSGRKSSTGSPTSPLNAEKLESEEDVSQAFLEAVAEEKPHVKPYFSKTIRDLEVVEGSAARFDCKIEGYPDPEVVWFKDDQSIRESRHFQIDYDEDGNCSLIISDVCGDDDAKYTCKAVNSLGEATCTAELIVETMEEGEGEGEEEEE
MARK3, sequence (P27448 whole entry, species assumed): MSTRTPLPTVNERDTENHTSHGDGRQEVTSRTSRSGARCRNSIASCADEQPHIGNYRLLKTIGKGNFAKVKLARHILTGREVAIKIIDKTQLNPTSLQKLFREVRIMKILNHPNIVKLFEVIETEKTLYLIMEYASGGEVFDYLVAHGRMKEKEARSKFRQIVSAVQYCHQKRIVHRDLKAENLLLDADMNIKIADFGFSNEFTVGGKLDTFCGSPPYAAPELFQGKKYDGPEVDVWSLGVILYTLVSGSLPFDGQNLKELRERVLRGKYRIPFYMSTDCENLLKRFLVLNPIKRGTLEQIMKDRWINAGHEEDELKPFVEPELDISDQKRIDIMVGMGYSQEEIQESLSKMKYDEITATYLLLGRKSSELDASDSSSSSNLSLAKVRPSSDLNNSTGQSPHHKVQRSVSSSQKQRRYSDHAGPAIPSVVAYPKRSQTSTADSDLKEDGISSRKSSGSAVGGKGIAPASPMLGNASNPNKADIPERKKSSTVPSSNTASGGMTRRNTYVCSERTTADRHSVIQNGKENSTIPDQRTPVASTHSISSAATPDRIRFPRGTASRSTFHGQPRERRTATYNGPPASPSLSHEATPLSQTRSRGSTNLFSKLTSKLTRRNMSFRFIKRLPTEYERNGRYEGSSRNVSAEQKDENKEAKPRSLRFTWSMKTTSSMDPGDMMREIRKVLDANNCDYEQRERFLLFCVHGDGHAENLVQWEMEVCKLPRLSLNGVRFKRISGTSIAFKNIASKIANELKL
ERK5, sequence (Q13164 whole entry, species assumed): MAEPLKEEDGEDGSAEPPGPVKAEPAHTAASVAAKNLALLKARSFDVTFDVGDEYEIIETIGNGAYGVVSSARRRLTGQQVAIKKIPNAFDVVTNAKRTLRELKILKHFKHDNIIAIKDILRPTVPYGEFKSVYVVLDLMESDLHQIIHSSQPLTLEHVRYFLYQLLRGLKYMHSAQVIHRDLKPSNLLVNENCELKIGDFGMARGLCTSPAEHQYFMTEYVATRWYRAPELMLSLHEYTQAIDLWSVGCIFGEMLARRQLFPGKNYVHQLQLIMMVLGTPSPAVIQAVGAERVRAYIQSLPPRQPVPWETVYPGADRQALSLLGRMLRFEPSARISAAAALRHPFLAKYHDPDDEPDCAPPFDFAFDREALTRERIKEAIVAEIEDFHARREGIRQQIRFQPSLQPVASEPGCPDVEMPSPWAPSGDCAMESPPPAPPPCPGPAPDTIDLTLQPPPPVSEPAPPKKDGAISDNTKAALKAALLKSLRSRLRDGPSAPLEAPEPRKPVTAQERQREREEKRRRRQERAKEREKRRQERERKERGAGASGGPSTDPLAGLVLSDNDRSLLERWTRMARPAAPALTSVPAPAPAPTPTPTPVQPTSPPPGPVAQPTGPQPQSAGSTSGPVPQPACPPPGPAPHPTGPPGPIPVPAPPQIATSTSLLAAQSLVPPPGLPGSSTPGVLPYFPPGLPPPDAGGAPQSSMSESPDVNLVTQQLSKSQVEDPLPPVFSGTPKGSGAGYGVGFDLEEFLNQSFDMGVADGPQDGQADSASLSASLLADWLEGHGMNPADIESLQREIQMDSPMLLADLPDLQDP
Lck, sequence (P06239 whole entry, species assumed): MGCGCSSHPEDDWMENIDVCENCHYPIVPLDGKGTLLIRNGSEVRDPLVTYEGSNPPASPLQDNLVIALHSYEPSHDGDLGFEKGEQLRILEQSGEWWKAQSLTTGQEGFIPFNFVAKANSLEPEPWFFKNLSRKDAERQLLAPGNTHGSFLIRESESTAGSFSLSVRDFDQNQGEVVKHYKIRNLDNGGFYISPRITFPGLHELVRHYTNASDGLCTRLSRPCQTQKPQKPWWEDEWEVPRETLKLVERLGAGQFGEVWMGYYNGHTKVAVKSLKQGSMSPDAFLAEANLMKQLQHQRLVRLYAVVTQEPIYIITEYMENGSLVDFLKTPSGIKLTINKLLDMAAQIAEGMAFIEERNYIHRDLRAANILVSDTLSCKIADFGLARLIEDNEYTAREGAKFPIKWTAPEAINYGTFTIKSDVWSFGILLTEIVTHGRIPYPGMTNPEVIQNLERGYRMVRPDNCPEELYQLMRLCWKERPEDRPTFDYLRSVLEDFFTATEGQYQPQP
DAPK1, sequence (P53355 whole entry, species assumed): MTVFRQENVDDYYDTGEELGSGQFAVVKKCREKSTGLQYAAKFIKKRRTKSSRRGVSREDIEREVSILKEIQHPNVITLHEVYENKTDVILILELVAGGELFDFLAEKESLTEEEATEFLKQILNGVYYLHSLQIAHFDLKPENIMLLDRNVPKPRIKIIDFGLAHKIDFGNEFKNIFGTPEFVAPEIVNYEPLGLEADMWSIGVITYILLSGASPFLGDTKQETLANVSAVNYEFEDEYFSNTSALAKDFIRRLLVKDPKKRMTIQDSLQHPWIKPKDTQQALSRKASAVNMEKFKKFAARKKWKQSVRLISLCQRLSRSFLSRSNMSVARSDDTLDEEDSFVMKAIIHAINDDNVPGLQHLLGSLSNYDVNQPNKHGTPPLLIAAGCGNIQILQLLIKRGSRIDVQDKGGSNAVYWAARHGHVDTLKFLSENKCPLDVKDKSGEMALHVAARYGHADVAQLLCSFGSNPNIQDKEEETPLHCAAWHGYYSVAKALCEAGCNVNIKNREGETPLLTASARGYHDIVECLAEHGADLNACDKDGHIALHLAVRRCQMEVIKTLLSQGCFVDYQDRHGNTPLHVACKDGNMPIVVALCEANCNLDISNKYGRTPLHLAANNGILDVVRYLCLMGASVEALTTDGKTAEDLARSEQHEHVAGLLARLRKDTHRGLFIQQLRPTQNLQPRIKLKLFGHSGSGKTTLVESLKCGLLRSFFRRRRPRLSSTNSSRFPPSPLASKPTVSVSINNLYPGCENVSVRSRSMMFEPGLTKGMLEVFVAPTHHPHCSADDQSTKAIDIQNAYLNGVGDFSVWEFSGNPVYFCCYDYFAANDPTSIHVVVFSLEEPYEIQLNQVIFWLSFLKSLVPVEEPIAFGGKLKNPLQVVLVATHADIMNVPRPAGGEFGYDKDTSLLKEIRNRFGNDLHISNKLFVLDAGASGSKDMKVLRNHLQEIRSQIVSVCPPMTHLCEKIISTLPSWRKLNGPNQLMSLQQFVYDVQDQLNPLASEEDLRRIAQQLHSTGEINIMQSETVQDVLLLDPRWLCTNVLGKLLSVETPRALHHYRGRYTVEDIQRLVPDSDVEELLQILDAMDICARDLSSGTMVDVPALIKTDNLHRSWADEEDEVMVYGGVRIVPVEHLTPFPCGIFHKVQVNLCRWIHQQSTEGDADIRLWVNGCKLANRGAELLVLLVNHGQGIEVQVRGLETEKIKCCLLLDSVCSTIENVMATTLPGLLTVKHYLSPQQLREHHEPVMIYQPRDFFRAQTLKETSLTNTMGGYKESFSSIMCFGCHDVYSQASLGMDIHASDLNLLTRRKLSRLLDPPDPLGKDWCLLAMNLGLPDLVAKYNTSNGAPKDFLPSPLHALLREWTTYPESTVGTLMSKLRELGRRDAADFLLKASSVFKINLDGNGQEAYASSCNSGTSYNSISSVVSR

| SMILES | residual kinase activity, p38a MAPK (p38a MAPK; [1]) | residual kinase activity, SmMLCK (SmMLCK; [1]) | residual kinase activity, MARK3 (MARK3; [1]) | residual kinase activity, DYRK1A (DYRK1A; [1]) | residual kinase activity, Lck (Lck; [1]) | residual kinase activity, ERK5 (ERK5) | further results |
| --- | --- | --- | --- | --- | --- | --- | --- |
| O=C(Nc1nc2ccc(F)cc2s1)c1ccccc1 [Compound 03-92] | 114 | 68 | 109 | 11 | 102 | – | – |
| CC(=O)Nc1nc2ccc(F)cc2s1 [Compound 03-94] | 84 | 67 | 96 | 12 | 92 | – | – |
| O=C(Nc1nc2cc(O)ccc2s1)c1ccccc1 [Compound 03-102] | 57 | 15 | 63 | 6 | 98 | – | – |
| COc1ccc2nc(C(=O)Nc3ccccc3)sc2c1 [Compound 13-03] | – | – | – | – | – | – | residual kinase activity, p38a MAPK (p38a MAPK; [2]): 103; residual kinase activity, SmMLCK (SmMLCK; [2]): 85; residual kinase activity, MARK3 (MARK3; [2]): 92; residual kinase activity, DYRK1A (DYRK1A; [2]): 45; residual kinase activity, Lck (Lck; [2]): 89 |
| N#Cc1ccc2nc(NC(=O)c3ccccc3)sc2c1 [Compound 03-106] | 60 | 94 | 98 | 3 | 95 | – | – |
| COc1cccc(NC(=O)Nc2nc3cc(O)ccc3s2)c1 [Compound 13-62] | – | – | – | – | – | – | residual kinase activity, p38a MAPK (p38a MAPK; [2]): 21; residual kinase activity, SmMLCK (SmMLCK; [2]): 5; residual kinase activity, MARK3 (MARK3; [2]): 12; residual kinase activity, DYRK1A (DYRK1A; [2]): 7; residual kinase activity, Lck (Lck; [2]): 11 |
| COC(=O)c1cccc(C(=O)Nc2nc3ccc(F)cc3s2)c1 [Compound 03-110] | 106 | 55 | 105 | 13 | 93 | – | – |
| CC(=O)Nc1nc2cc(O)ccc2s1 [Compound 01-66, N-(5-hydroxybenzo[d]thiazol-2-yl)acetamide] | – | – | – | – | – | – | remaining activity at 100 µM (p38a MAPK): 84%; remaining activity at 100 µM (MAPKAP-K3): 39%; remaining activity at 100 µM (SmMLCK; [1]): 58%; remaining activity at 100 µM (DAPK1): 44%; remaining activity at 100 µM (MARK3): 34%; remaining activity at 100 µM (DYRK1A): 5%; remaining activity at 100 µM (HIPK3): 37%; remaining activity at 100 µM (MEKK1): 94%; remaining activity at 100 µM (Lck): 69%; remaining activity at 100 µM (ZAP70): 113%; remaining activity at 100 µM (TIE2): 75%; remaining activity at 100 µM (EPH-A4): 73% |
| COc1ccc2sc(NC(=O)c3cccc(C(N)=O)c3)nc2c1 [Compound 03-113] | 113 | 83 | 101 | 51 | 111 | – | – |
| CC(=O)Nc1nc2ccc(O)cc2s1 [Compound 01-71] | – | – | – | – | – | – | remaining activity at 100 µM (p38a MAPK; [1]): 86%; remaining activity at 100 µM (MAPKAP-K3; [1]): 34%; remaining activity at 100 µM (SmMLCK; [1]): 39%; remaining activity at 100 µM (DAPK1; [1]): 21%; remaining activity at 100 µM (MARK3; [1]): 46%; remaining activity at 100 µM (DYRK1A; [1]): 20%; remaining activity at 100 µM (HIPK3; [1]): 27%; remaining activity at 100 µM (MEKK1; [1]): 96%; remaining activity at 100 µM (Lck; [1]): 192%; remaining activity at 100 µM (ZAP70; [1]): 126%; remaining activity at 100 µM (TIE2; [1]): 65%; remaining activity at 100 µM (EPH-A4; [1]): 77% |
| COc1ccc2sc(NC(=O)c3cccc(NC(C)=O)c3)nc2c1 [MS:LY-2-85] | 89 | – | – | – | – | 45 | – |
| CC(=O)Nc1ccccc1C(=O)Nc1nc2ccc(O)cc2s1 [Compound 08-39] | 96 | – | – | – | – | 47 | – |
| O=C(Nc1nc2ccc(C(F)(F)F)cc2s1)c1ccccc1 [Compound 03-99] | 86 | 89 | 106 | 9 | 92 | – | – |
| COc1ccc2sc(NC(=O)c3ccc(NC(C)=O)cc3)nc2c1 [MS:LY-2-77] | 109 | – | – | – | – | 74 | – |
| CC(=O)Nc1cccc(C(=O)Nc2nc3ccc(O)cc3s2)c1 [Compound 03-58] | 81 | – | – | – | – | 31 | – |
| COc1ccc2nc(NC(=O)c3ccccc3)sc2c1 [Compound 03-98] | 86 | 75 | 72 | 6 | 93 | – | – |
| CC(=O)Nc1nc2ccc([N+](=O)[O-])cc2s1 [Compound 13-10] | – | – | – | – | – | – | remaining activity at 100 µM (p38a MAPK; [1]): 103%; remaining activity at 100 µM (SmMLCK; [1]): 58%; remaining activity at 100 µM (MARK3; [1]): 85%; remaining activity at 100 µM (DYRK1A; [1]): 6%; remaining activity at 100 µM (Lck; [1]): 79% |
| COC(=O)c1cccc(C(=O)Nc2nc3cc(OC)ccc3s2)c1 [Compound 03-108] | 94 | 79 | 100 | 51 | 100 | – | – |
| COc1ccc2sc(NC(=O)c3ccccc3)nc2c1 [Compound 03-95] | 82 | 48 | 106 | 30 | 93 | – | – |
| CC(=O)NC(C)C(=O)Nc1nc2ccc(C(F)(F)F)cc2s1 (stereo not drawn) [Compound 03-80] | 79 | – | – | – | – | 27 | – |
| CC(=O)Nc1ccc(C(=O)Nc2nc3cc(O)ccc3s2)cc1 [MS:LY-2-87] | 73 | – | – | – | – | 54 | – |
| COC(=O)c1cccc(C(=O)Nc2nc3ccc(C(F)(F)F)cc3s2)c1 [Compound 03-105, Methyl 3-((6-(trifluoromethyl)benzo[d]thiazol-2-yl)carbamoyl)benzoate] | – | – | – | – | – | – | remaining activity at 100 µM (p38a MAPK): 84%; remaining activity at 100 µM (SmMLCK; [1]): 63%; remaining activity at 100 µM (MARK3): 103%; remaining activity at 100 µM (DYRK1A): 2%; remaining activity at 100 µM (Lck): 99% |
| CC(=O)Nc1cccc(C(=O)Nc2nc3cc(O)ccc3s2)c1 [MS:LY-2-89] | 18 | – | – | – | – | 32 | – |
